Data published in PMC10157847 (ACS Omega, 2023).

Molecular target: T1, α-amylase from porcine pancreatic (Sus scrofa, UniProt P00690)
T1 sequence (P00690 16-511): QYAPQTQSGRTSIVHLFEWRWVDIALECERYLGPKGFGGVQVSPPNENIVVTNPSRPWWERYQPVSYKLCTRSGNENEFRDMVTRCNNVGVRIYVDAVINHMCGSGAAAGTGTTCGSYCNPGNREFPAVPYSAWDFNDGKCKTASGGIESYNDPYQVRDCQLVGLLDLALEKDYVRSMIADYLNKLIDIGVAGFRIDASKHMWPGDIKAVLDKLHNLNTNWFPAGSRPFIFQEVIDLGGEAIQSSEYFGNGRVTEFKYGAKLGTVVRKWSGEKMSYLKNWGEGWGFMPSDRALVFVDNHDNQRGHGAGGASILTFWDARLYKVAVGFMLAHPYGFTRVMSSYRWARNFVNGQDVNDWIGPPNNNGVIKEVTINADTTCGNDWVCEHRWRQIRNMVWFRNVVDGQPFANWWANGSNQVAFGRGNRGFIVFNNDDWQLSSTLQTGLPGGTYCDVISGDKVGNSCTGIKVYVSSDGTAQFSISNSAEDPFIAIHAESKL
Assay: In vitro α-amylase inhibition assay
Type: biochemical
Settings: not given

Structure (SMILES)	IC50 [µM]
O=C1Nc2ccccc2/C1=N/NS(=O)(=O)c1ccc([N+](=O)[O-])cc1 [Compound 10]	13.2 ± 0.2
Cc1ccc([N+](=O)[O-])cc1S(=O)(=O)N/N=C1\C(=O)Nc2ccccc21 [Compound 9]	13.2 ± 0.3
O=C1Nc2ccc([N+](=O)[O-])cc2/C1=N/NS(=O)(=O)c1ccc([N+](=O)[O-])cc1 [Compound 5]	13.2 ± 0.2
Cc1ccc([N+](=O)[O-])cc1S(=O)(=O)N/N=C1\C(=O)Nc2ccc([N+](=O)[O-])cc21 [Compound 4]	13.3 ± 0.3
Cc1ccc([N+](=O)[O-])cc1S(=O)(=O)N/N=C1\C(=O)Nc2ccc(Cl)cc21 [Compound 15, (Z)-N'-(5-chloro-2-oxoindolin-3-ylidene)-2-methyl-5-nitrobenzenesulfonohydrazide]	14.9 ± 0.2

Same assay, conditions: read-out: IC50 ± SEM Alpha-amylase; porcine pancreatic α-amylase, starch

Structure (SMILES)	IC50 [µM]
O=C1Nc2ccc(Cl)cc2/C1=N/NS(=O)(=O)c1ccc([N+](=O)[O-])cc1 [Compound 16, (Z)-N'-(5-chloro-2-oxoindolin-3-ylidene)-4-nitrobenzenesulfonohydrazide]	12.3 ± 20
